Results as given in article PMC10056986 (Pharmaceuticals, 2023).
Where two headings read alike, the source gives them in different places.

What was measured:
CK1 alpha = CK1 alpha (Homo sapiens, UniProt P48729); assay: biochemical
MAPKAPK2 = MAPKAPK2 (Homo sapiens, UniProt P49137); assay: biochemical
Alpha2a = Alpha2a (Homo sapiens, UniProt P08913); assay: cell-based
M2 [1] = biological target: T1, M2 (Homo sapiens, UniProt P08172); assay: cell-based
M3 [2] = biological target: T2, M3 (Homo sapiens, UniProt P20309); assay: cell-based
AD2 = format: cell-based, human
H1 = H1 (Homo sapiens, UniProt P35367); assay: cell-based
CB2 = CB2 (Homo sapiens, UniProt P34972); assay: cell-based
op-mu = op-mu (Homo sapiens, UniProt P35372); assay: cell-based
M2 [3] = biological target: T1, M2; assay: cell-based; remark: listed apart in the source
M3 [4] = biological target: T2, M3; assay: cell-based; remark: listed apart in the source
H2 = H2 (Homo sapiens, UniProt P25021); assay: cell-based
CCKa = biological target: T3, CCKa (Homo sapiens, UniProt P32238); assay: cell-based
T3 sequence (P32238 1-428): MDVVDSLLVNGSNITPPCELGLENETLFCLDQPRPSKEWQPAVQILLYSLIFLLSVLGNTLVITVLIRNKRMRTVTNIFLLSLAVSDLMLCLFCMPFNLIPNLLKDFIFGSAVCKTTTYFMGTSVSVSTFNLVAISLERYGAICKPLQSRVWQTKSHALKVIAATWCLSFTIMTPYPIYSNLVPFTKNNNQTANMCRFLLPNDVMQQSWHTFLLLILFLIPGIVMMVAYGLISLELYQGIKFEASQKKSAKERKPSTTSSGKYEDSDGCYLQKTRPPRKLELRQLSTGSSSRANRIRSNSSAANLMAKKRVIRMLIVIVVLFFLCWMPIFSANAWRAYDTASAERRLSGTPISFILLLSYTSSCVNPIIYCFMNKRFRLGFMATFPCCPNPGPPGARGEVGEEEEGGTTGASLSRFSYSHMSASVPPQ

5HT1A = 5HT1A (Homo sapiens, UniProt P08908); assay: cell-based
CB1 = CB1 (Homo sapiens, UniProt P21554); assay: cell-based
[5] = test system: Influenza virus A/Mal/302/54 (H1N1); assay: microbe, parasite or virus in culture; format: cell-based; details: H1N1, MDCK, read-out: EC50 (mean ± SD)
[6] = test system: Influenza virus A/PR/8/34 (H1N1); assay: microbe, parasite or virus in culture; format: cell-based; details: H1N1|PR/8, MDCK, read-out: EC50 (mean ± SD)
[7] = test system: Influenza virus A/Weiss/43(H1N1); assay: microbe, parasite or virus in culture; format: cell-based; details: H1N1, MDCK, read-out: EC50 (mean ± SD)
Influenza virus B/Lee/40 = assay: microbe, parasite or virus in culture; format: cell-based; details: MDCK, read-out: EC50 (mean ± SD)
[8] = test system: Influenza virus A/California/2/2014 (H3N2); assay: microbe, parasite or virus in culture; format: cell-based; details: H3N2, MDCK, read-out: EC50 (mean ± SD)
HPIV-3 C243 = assay: microbe, parasite or virus in culture; format: cell-based, human parainfluenza virus type 3; details: Human respirovirus 3, LLC-MK2, read-out: EC50 for Virus
HRV 1B = assay: microbe, parasite or virus in culture; format: cell-based; details: Human rhinovirus sp., H1-HeLa, read-out: EC50 for Virus
[9] = test system: influenza A virus/California/07/2009 (H1N1); set-up: species or system ferrets; details: in vivo, po, 25 mg/kg/day
[10] = rat, in vivo, 15 mg/kg
in vivo = details: both, SD, rat; for AUC(0-t): AUC0-last
hERG potassium channel = hERG potassium channel (Homo sapiens, UniProt Q12809); assay: in vitro
CAMK2 alpha = CAMK2 alpha (Homo sapiens, UniProt Q9UQM7); assay: biochemical
EPHA2 = EPHA2 (Homo sapiens, UniProt P29317); assay: biochemical
KDR = KDR (Homo sapiens, UniProt P35968); assay: biochemical
TNIK = TNIK (Homo sapiens, UniProt Q9UKE5); assay: biochemical
[11] = test system: H1N1 and H3N2 influenza A virus strains; assay: microbe, parasite or virus in culture; details: MDCK
[12] = 10,000 nM, read-out: Inhibition at Maximum Concentration (%)

T2 sequence (P20309 whole entry): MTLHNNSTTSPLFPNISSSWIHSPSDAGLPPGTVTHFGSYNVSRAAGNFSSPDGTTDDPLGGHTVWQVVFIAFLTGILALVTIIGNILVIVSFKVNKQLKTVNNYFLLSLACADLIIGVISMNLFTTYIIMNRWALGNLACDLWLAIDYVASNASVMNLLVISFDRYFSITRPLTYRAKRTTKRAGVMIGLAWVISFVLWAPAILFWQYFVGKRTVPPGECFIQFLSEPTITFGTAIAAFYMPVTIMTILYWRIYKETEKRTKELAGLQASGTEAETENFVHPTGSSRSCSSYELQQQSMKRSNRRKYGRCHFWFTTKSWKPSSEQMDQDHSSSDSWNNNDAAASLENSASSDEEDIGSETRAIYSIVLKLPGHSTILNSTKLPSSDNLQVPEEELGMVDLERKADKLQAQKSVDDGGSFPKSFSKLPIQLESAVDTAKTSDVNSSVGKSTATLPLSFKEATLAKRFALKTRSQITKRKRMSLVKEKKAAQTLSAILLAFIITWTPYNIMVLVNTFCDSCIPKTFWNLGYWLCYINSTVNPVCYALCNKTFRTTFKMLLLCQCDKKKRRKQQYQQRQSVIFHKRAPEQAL
T1 sequence (P08172 whole entry): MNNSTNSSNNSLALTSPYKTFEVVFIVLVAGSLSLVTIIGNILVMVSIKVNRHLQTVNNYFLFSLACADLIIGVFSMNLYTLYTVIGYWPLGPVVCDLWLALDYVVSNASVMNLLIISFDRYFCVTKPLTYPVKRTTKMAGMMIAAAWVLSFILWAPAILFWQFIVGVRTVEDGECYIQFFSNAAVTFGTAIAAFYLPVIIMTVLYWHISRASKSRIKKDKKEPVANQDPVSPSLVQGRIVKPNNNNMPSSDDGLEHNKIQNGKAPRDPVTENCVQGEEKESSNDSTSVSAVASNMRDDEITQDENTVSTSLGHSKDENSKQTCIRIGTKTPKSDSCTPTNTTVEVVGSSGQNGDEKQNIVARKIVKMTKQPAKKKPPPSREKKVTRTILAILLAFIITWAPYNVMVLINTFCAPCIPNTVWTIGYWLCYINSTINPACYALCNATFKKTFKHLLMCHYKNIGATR
op-mu, sequence (P35372 whole entry): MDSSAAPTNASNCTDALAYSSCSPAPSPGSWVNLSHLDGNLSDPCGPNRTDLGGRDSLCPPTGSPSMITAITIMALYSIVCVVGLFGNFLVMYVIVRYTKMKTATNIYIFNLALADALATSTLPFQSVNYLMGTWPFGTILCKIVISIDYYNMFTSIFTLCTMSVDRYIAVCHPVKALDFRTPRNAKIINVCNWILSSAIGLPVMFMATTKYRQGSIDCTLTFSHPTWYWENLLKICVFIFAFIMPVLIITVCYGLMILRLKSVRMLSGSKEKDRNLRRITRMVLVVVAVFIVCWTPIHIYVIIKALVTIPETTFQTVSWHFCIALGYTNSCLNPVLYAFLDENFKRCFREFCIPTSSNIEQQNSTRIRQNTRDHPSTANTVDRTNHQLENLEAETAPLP
CB2, sequence (P34972 whole entry): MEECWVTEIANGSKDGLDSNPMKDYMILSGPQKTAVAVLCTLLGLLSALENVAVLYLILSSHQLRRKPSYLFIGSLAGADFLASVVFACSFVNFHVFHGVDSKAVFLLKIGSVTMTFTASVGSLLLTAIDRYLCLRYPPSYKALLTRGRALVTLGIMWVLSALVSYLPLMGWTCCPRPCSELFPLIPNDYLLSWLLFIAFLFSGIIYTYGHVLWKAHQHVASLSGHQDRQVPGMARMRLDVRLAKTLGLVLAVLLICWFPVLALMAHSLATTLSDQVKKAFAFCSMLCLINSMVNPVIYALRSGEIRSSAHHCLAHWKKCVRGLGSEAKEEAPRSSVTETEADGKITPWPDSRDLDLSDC
H1, sequence (P35367 whole entry): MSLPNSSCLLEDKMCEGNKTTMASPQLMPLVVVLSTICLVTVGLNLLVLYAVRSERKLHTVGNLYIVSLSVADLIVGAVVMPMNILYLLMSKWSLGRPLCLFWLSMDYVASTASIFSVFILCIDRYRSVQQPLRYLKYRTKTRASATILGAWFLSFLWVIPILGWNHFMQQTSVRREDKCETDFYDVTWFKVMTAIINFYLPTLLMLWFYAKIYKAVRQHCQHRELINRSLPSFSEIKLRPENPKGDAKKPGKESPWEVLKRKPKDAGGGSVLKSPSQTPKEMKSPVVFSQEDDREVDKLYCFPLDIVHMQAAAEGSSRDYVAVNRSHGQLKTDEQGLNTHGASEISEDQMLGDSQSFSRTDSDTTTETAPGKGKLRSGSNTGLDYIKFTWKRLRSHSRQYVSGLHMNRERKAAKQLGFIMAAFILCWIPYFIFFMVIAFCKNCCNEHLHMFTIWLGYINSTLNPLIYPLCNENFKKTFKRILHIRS
H2, sequence (P25021 whole entry): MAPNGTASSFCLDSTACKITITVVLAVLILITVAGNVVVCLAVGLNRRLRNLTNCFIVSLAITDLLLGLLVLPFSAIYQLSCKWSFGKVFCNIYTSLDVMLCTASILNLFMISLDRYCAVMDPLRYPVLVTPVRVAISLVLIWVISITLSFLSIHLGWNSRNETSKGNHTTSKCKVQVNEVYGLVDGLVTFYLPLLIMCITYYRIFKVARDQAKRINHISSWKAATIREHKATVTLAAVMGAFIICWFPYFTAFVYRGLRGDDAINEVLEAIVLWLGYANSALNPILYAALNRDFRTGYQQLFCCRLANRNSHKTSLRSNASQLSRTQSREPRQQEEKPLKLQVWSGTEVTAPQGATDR
CB1, sequence (P21554 whole entry): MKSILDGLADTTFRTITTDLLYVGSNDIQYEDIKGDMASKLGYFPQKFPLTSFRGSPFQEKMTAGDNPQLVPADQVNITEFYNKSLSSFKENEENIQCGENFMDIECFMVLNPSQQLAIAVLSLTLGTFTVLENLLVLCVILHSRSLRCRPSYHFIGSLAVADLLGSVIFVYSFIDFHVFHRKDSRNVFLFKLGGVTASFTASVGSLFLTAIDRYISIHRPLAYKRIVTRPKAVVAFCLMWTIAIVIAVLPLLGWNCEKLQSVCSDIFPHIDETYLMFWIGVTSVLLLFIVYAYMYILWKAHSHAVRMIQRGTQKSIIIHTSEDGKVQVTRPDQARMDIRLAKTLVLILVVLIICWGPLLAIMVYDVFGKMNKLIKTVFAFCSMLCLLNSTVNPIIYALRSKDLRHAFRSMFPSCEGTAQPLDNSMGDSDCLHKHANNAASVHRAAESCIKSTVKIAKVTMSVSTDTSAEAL
5HT1A, sequence (P08908 whole entry): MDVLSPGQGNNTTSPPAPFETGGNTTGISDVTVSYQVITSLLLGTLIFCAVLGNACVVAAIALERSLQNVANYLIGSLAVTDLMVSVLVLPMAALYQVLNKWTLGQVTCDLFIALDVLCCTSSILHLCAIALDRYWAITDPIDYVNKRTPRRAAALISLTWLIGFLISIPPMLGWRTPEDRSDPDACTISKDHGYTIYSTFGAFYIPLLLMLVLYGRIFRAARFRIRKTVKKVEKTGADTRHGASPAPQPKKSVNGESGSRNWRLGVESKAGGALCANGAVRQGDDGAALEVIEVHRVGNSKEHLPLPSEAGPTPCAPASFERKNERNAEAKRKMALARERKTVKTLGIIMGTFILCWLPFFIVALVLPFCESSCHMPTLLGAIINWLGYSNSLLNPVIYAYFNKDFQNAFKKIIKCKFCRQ
Alpha2a, sequence (P08913 whole entry): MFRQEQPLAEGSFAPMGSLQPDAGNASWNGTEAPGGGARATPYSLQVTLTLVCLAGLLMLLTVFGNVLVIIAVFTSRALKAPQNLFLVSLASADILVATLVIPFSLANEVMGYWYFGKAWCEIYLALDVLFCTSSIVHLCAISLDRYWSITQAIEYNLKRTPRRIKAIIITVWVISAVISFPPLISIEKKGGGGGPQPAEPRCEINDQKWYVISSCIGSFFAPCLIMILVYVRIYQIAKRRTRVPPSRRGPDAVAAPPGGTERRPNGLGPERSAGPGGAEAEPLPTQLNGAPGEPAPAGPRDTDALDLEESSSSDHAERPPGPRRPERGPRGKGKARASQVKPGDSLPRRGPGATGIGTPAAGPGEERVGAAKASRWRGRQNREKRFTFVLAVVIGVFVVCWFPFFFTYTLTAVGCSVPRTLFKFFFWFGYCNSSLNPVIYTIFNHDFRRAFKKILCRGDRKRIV
CAMK2 alpha, sequence (Q9UQM7 whole entry): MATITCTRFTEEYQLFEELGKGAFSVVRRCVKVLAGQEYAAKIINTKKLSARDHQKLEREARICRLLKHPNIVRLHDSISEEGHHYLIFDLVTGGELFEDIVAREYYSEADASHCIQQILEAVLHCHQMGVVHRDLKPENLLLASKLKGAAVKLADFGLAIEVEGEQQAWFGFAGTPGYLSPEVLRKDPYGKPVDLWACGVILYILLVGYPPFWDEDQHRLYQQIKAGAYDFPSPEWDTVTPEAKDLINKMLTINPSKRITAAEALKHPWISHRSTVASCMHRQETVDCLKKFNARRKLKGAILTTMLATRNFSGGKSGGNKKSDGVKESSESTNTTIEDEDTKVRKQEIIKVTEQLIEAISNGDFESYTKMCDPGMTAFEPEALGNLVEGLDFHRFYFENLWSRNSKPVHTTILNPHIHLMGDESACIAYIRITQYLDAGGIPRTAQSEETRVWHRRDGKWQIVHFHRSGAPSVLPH
MAPKAPK2, sequence (P49137 whole entry): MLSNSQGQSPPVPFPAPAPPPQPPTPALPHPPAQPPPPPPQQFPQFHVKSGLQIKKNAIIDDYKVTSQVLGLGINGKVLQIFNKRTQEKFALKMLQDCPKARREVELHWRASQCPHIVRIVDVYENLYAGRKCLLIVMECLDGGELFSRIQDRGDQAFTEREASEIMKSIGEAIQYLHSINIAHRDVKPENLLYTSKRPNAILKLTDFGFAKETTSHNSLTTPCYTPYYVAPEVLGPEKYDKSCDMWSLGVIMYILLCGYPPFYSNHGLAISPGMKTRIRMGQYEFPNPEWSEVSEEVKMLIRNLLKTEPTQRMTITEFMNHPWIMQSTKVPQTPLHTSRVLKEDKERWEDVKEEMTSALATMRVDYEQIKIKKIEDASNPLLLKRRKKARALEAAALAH

With `O=C(O)[C@H]1C2CCC(CC2)[C@@H]1Nc1nc(-c2n[nH]c3ncc(F)cc23)nc(C2CC2)c1F` [ZSP1273] the IC50 (CK1 alpha) was > 10 µM, the IC50 (MAPKAPK2) was > 10 µM and the EC50 (Alpha2a) was > 12 µM. For the same compound, the “Activity at Maximum Concentration (%)” value (Alpha2a; 12,000 nM) was −2.1%, the EC50 (M2 [1]) was > 12 µM and the “Activity at Maximum Concentration (%)” value (M2 [1]; 12,000 nM) was −3%. For the same compound, the EC50 (M3 [2]) was > 12 µM, the “Activity at Maximum Concentration (%)” value (M3 [2]; 12,000 nM) was −2.89% and the EC50 (AD2) was > 12 µM. For the same compound, the “Activity at Maximum Concentration (%)” value (AD2; 12,000 nM) was 3.38%, the EC50 (H1) was > 12 µM and the “Activity at Maximum Concentration (%)” value (H1; 12,000 nM) was 0.73%. The EC50 (CB2) was > 12 µM, the “Activity at Maximum Concentration (%)” value (CB2; 12,000 nM) was −17.1% and the IC50 (op-mu) was > 10 µM. The inhibition at 10 µM (op-mu; [12]) was -24.5%, the IC50 (M2 [3]) was > 10 µM and the inhibition at 10 µM (M2 [3]; [12]) was -55.7%. For the same compound, the IC50 (M3 [4]) was > 10 µM, the inhibition at 10 µM (M3 [4]; [12]) was -4.78% and the IC50 (H2) was > 10 µM. The inhibition at 10 µM (H2; [12]) was 42.4%, the IC50 (CCKa) was > 10 µM and the inhibition at 10 µM (CCKa; [12]) was -17.6%. For the same compound, the IC50 (5HT1A) was > 10 µM, the inhibition at 10 µM (5HT1A; [12]) was 19% and the IC50 (CB1) was > 10 µM. The inhibition at 10 µM (CB1; [12]) was -77.2%, the EC50 [5] was 0.028 ± 0.011 nM and the EC50 [6] was 0.042 ± 0.01 nM. The EC50 [7] was 0.012 ± 0.002 nM, the EC50 (Influenza virus B/Lee/40) was > 0.001 µM and the EC50 [8] was 0.01 ± 0.0002 nM. For the same compound, the EC50 (HPIV-3 C243) was > 10 µM, the EC50 (HRV 1B) was 7.88 µM and the “viral load in nasal lavage fluid vs vehicle” value [9] was “decreased significantly”. The “accumulation (AUC0-last and Cmax, day 7 vs day 1)” value [10] was “No significant accumulation”, the Vd (in vivo; iv, 3 mg/kg) was 0.508 ± 0.241 L/kg and the clearance (in vivo; iv, 3 mg/kg) was 12.9 ± 2.23 mL/min/kg. The half-life (in vivo; iv, 3 mg/kg) was 2.11 ± 1.46 h, the AUC(0-t) (in vivo; iv, 3 mg/kg) was 3950 ± 773 ng·h/mL and the bioavailability (in vivo; po, 3 mg/kg) was 22.8%. The AUC(0-t) (in vivo; po, 3 mg/kg) was 899 ± 213 ng·h/mL, the Cmax (in vivo; po, 3 mg/kg) was 661 ± 304 ng/mL and the AUC(0-t) (in vivo; po, 15 mg/kg) was 12100 ng·h/mL. For the same compound, the Cmax (in vivo; po, 15 mg/kg) was 5680 ± 2470 ng/mL, the AUC(0-t) (in vivo; po, 75 mg/kg) was 77700 ng·h/mL and the Cmax (in vivo; po, 75 mg/kg) was 17200 ng/mL. For the same compound, the inhibition at 40 µM (hERG potassium channel) was < 50%, the IC50 (CAMK2 alpha) was > 10 µM and the IC50 (EPHA2) was > 10 µM. The IC50 (KDR) was > 10 µM, the IC50 (TNIK) was > 10 µM and the EC50 ([11]; read-out: EC50 values range) was 0.01 to 0.063 nM. The EC50 ([11]; read-out: average EC50 value range) was 0.012 to 0.063 nM.
